Source: ChEMBL document CHEMBL4028801, “A multifactorial approach to hepatobiliary transporter assessment enables improved therapeutic compound development” (Toxicol Sci, 2013)

Legend:
[1] = biological target: ATP-binding cassette sub-family C member 2 (Homo sapiens, UniProt Q92887); assay: Inhibition of human MRP2 overexpressed in Sf9 cell membrane vesicles assessed as uptake of [3H]-estradiol-17beta-D-glucuronide in presence of ATP and GSH measured after 20 mins by membrane vesicle transport assay
[2] = Ratio of drug concentration at steady state in human at 1 to 16 mg or 4 to 8 mg, po QD extended-release tablets after 24 hrs to IC50 for human BSEP overexpressed in Sf9 insect cells; assay type: ADME, organism-based; settings: in vivo
[3] = biological target: ATP-binding cassette sub-family C member 3 (Homo sapiens, UniProt O15438); assay: Inhibition of human MRP3 overexpressed in Sf9 insect cell membrane vesicles assessed as uptake of [3H]-estradiol-17beta-D-glucuronide in presence of ATP and GSH measured after 10 mins by membrane vesicle transport assay; assay type: ADME, cell-based
[4] = Ratio of drug concentration at steady state in human at 1 to 16 mg or 4 to 8 mg, po QD extended-release tablets after 24 hrs to IC50 for human MRP4 overexpressed in Sf9 insect cells; assay type: ADME, organism-based; settings: in vivo
[5] = biological target: Bile salt export pump (Homo sapiens, UniProt O95342); assay: Inhibition of human BSEP overexpressed in Sf9 cell membrane vesicles assessed as uptake of [3H]-taurocholate in presence of ATP measured after 15 to 20 mins by membrane vesicle transport assay; assay type: ADME, cell-based
[6] = biological target: T1, ATP-binding cassette sub-family C member 4 (Homo sapiens, UniProt O15439); assay: Inhibition of human MRP4 overexpressed in Sf9 cell membrane vesicles assessed as uptake of [3H]-estradiol-17beta-D-glucuronide in presence of ATP and GSH measured after 20 mins by membrane vesicle transport assay; assay type: ADME, cell-based
T1 sequence (O15439 whole entry): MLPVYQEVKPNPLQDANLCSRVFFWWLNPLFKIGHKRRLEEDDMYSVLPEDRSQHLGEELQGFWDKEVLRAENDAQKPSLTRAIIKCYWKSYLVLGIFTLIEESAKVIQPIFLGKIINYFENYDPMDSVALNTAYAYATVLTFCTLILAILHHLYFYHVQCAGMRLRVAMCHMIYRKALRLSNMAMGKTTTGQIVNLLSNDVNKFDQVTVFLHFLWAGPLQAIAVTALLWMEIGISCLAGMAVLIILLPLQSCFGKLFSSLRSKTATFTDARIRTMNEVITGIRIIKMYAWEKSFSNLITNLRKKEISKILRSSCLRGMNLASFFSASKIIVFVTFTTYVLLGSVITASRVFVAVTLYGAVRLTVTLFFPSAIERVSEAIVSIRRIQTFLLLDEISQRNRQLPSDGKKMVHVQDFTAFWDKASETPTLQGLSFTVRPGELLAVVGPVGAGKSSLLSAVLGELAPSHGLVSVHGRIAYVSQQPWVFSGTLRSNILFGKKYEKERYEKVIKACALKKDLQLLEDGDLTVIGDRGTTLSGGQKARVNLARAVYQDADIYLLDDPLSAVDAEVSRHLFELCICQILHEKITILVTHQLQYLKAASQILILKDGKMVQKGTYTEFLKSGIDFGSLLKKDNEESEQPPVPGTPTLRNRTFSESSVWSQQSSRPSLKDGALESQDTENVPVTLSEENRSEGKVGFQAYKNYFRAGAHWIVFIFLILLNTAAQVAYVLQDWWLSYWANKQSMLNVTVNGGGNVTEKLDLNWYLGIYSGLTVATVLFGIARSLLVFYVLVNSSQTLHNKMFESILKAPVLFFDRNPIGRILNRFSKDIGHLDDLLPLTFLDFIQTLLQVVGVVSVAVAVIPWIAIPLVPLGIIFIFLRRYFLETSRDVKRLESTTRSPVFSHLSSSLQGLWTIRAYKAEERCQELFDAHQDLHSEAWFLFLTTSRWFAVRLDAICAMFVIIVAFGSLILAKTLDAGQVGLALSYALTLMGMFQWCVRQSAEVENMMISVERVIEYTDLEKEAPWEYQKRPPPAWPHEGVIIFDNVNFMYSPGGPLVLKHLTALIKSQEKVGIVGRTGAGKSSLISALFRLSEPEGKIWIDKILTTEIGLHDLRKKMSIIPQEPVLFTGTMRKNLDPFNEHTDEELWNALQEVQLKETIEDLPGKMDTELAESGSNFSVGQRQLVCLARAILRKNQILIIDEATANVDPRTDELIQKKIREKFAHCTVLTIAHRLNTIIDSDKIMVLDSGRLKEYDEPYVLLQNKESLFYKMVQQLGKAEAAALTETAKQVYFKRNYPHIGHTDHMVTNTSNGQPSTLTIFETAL

[7] = AUC in human at 1 to 16 mg or 4 to 8 mg, po QD extended-release tablets after 24 hrs; assay type: ADME, organism-based; settings: in vivo
[8] = tested on: Homo sapiens; assay: Drug concentration at steady state in human at 1 to 16 mg or 4 to 8 mg, po QD extended-release tablets after 24 hrs; assay type: ADME, organism-based; settings: in vivo
[9] = Drug concentration at steady state in human at 20 to 80 mg, po QD after 24 hrs; assay type: ADME, organism-based; settings: in vivo, read-out: Css
[10] = Ratio of drug concentration at steady state in human at 20 to 80 mg, po QD after 24 hrs to IC50 for human MRP3 overexpressed in Sf9 insect cells; assay type: ADME, organism-based; settings: in vivo
[11] = Ratio of drug concentration at steady state in human at 20 to 80 mg, po QD after 24 hrs to IC50 for human MRP4 overexpressed in Sf9 insect cells; assay type: ADME, organism-based; settings: in vivo
[12] = AUC in human at 20 to 80 mg, po QD after 24 hrs; assay type: ADME, organism-based; settings: in vivo
[13] = Ratio of drug concentration at steady state in human at 20 to 80 mg, po QD after 24 hrs to IC50 for human BSEP overexpressed in Sf9 insect cells; assay type: ADME, organism-based; settings: in vivo
[14] = AUC in human at 400 mg, po BID after 12 hrs; assay type: ADME, organism-based; parameters: time < 12 hr, dose 400 mg, route oral; settings: in vivo
[15] = Drug concentration at steady state in human at 400 mg, po BID after 12 hrs; assay type: ADME, organism-based; settings: in vivo, read-out: Css
[16] = Ratio of drug concentration at steady state in human at 400 mg, po BID after 12 hrs to IC50 for human BSEP overexpressed in Sf9 insect cells; assay type: ADME, organism-based; settings: in vivo
[17] = Drug concentration at steady state in human at 15 mg, po QD for 14 days after 24 hrs; assay type: ADME, organism-based; settings: in vivo, read-out: Css
[18] = Ratio of drug concentration at steady state in human at 15 mg, po QD for 14 days after 24 hrs to IC50 for human BSEP overexpressed in Sf9 insect cells; assay type: ADME, organism-based; settings: in vivo
[19] = AUC in human at 15 mg, po QD for 14 days after 24 hrs; assay type: ADME, organism-based; parameters: dose 15 mg, time < 24 hr, route oral; settings: in vivo
[20] = AUC in benign prostate hyperplasia patient at 5 mg, po QD after 24 hrs; assay type: ADME, organism-based; parameters: time < 24 hr, dose 5 mg, route oral; settings: male, human, in vivo
[21] = Drug concentration at steady state in alopecia patient at 1 mg, po QD after 24 hrs; assay type: ADME, organism-based; settings: human, in vivo, read-out: Css
[22] = Ratio of drug concentration at steady state in human in alopecia patient at 1 mg, po QD after 24 hrs to IC50 for human BSEP overexpressed in Sf9 insect cells; assay type: ADME, organism-based; settings: in vivo
[23] = Drug concentration at steady state in benign prostate hyperplasia patient at 5 mg, po QD after 24 hrs; assay type: ADME, organism-based; settings: male, human, in vivo, read-out: Css
[24] = Ratio of drug concentration at steady state in human in benign prostate hyperplasia patient at 5 mg, po QD after 24 hrs to IC50 for human MRP4 overexpressed in Sf9 insect cells; assay type: ADME, organism-based; settings: in vivo
[25] = AUC in alopecia patient at 1 mg, po QD after 24 hrs; assay type: ADME, organism-based; parameters: time < 24 hr, dose 1 mg, route oral; settings: human, in vivo
[26] = Ratio of drug concentration at steady state in human in alopecia patient at 1 mg, po QD after 24 hrs to IC50 for human MRP4 overexpressed in Sf9 insect cells; assay type: ADME, organism-based; settings: in vivo
[27] = Ratio of drug concentration at steady state in human in benign prostate hyperplasia patient at 5 mg, po QD after 24 hrs to IC50 for human BSEP overexpressed in Sf9 insect cells; assay type: ADME, organism-based; settings: in vivo

Sequence of ATP-binding cassette sub-family C member 3 (O15438 whole entry): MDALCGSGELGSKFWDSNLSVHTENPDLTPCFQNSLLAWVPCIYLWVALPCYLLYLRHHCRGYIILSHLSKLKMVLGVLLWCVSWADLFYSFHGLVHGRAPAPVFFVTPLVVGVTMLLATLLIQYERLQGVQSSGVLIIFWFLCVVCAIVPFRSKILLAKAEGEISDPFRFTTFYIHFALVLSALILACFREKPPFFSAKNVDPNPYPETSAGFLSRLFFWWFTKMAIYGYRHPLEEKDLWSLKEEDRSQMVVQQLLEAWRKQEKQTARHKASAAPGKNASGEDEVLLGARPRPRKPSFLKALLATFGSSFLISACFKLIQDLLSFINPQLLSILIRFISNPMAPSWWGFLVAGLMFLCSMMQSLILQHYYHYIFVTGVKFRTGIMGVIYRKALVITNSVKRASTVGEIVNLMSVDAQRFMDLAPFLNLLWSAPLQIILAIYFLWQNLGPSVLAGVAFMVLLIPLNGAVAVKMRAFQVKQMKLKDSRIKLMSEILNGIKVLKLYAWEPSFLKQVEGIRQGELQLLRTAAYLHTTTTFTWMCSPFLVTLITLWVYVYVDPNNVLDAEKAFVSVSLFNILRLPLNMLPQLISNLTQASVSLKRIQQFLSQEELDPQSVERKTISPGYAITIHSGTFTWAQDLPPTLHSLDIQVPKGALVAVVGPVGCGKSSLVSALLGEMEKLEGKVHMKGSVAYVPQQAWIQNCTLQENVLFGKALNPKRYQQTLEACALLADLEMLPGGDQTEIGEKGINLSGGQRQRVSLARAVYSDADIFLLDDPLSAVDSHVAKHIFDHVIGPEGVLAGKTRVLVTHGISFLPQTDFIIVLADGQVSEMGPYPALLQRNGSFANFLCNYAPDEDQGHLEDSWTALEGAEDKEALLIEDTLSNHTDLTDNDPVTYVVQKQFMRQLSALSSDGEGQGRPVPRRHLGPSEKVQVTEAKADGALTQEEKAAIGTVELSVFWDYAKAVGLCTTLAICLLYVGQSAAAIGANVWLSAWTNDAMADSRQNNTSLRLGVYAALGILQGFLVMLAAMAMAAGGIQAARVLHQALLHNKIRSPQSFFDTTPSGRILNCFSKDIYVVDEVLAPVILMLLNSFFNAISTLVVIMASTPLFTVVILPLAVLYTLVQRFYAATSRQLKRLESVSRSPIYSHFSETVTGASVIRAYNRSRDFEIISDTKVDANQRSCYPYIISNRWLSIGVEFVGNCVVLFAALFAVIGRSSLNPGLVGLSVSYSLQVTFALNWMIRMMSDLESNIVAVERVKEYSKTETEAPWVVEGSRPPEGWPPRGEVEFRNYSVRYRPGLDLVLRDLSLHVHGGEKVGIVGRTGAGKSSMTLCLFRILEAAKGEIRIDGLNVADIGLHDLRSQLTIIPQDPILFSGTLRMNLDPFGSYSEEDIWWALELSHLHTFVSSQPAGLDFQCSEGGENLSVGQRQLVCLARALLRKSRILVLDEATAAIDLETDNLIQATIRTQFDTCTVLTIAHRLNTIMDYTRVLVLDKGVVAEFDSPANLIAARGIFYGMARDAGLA
Sequence of ATP-binding cassette sub-family C member 2 (Q92887 whole entry): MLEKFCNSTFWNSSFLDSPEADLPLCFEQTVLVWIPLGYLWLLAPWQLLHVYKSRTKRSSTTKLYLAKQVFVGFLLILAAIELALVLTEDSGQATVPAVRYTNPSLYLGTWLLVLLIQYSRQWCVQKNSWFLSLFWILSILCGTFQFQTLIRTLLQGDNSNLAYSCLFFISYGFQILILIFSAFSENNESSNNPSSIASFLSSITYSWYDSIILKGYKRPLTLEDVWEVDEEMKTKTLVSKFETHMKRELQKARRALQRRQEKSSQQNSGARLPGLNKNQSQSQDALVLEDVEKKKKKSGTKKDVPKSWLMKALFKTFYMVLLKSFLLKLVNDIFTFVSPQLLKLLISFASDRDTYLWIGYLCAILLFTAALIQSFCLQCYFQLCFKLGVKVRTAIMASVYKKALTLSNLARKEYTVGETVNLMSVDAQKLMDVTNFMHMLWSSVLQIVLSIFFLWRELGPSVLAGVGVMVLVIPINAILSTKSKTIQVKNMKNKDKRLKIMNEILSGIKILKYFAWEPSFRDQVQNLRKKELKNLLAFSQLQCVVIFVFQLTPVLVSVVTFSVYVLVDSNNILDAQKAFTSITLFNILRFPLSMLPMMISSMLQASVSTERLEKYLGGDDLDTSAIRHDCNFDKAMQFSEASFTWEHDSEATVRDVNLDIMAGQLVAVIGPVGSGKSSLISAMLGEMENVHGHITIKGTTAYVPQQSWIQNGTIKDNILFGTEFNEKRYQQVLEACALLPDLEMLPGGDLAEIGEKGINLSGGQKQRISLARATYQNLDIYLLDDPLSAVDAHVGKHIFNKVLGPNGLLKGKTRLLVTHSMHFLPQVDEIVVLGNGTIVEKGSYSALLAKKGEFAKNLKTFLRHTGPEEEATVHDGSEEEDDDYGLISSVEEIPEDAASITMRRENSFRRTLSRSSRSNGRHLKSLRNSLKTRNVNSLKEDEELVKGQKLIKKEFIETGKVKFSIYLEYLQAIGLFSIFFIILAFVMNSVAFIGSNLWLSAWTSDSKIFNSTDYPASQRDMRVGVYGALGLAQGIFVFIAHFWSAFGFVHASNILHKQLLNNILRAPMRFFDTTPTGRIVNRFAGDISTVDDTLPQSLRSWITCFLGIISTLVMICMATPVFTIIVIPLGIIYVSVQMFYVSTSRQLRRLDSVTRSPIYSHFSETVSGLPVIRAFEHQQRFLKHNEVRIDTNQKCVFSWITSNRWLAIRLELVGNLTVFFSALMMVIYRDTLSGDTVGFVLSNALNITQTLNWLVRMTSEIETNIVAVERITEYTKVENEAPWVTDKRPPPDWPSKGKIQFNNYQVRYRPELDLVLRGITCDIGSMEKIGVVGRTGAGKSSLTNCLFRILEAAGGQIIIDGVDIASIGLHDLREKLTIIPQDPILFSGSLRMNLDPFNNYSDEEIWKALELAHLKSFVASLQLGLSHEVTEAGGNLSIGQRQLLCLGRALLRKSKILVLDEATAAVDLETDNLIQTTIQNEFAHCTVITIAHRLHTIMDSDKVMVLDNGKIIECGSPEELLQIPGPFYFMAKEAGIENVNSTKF
Sequence of Bile salt export pump (O95342 whole entry): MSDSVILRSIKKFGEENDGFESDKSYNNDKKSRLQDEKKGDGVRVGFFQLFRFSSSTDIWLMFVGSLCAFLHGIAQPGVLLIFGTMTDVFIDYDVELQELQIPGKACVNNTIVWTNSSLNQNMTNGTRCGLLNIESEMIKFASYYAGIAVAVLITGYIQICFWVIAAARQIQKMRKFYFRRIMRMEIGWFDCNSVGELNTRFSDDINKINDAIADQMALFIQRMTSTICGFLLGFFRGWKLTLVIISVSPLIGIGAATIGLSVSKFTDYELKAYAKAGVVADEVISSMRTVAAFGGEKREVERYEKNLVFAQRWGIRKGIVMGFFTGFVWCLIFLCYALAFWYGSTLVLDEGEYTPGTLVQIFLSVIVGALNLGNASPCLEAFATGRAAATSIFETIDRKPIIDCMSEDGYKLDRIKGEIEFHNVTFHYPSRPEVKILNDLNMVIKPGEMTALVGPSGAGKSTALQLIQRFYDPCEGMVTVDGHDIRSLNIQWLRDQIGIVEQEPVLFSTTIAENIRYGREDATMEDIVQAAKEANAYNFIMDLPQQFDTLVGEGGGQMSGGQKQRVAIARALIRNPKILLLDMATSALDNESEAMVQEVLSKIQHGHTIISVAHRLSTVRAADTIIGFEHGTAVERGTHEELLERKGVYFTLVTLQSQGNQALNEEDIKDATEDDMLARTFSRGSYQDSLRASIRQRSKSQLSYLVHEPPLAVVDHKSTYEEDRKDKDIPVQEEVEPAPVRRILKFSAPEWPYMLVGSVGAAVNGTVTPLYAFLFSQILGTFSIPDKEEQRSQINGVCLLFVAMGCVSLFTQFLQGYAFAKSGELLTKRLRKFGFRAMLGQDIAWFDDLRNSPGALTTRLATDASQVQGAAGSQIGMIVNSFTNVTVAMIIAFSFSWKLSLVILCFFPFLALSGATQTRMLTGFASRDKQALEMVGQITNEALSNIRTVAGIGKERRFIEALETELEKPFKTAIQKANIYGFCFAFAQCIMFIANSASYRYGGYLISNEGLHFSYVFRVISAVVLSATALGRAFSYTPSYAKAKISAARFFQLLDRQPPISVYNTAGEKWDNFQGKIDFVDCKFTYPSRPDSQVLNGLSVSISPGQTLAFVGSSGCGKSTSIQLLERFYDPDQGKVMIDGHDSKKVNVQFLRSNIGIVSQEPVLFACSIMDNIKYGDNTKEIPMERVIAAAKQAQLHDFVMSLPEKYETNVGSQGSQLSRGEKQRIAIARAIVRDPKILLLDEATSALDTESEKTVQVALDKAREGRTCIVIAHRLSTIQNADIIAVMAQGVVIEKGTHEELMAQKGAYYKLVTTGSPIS

COc1cc2nc(N3CCN(C(=O)C4COc5ccccc5O4)CC3)nc(N)c2cc1OC.CS(=O)(=O)O (stereo not given) [DOXAZOSIN MESYLATE]
IC50 [1]: > 133 µM | Ratio [2]: 0.002 | IC50 [3]: > 133 µM | Ratio [4]: 0.009 | IC50 [5]: 45 µM | IC50 [6]: 8 µM | AUC at 24 h [7]: 1.64 µM·h | Css [8]: 68 nM

CCCc1nc2c(C)cc(-c3nc4ccccc4n3C)cc2n1Cc1ccc(-c2ccccc2C(=O)O)cc1
IC50 [1]: > 133 µM | concentration at 24 h [9]: 149 nM | Ratio [10]: 0.002 | Ratio [11]: 0.004 | IC50 [3]: 60 µM | AUC at 24 h [12]: 3.57 µM·h | IC50 [6]: 36 µM | Ratio [13]: 0.009

CCCCc1oc2ccc(NS(C)(=O)=O)cc2c1C(=O)c1ccc(OCCCN(CCCC)CCCC)cc1.Cl [DRONEDARONE HYDROCHLORIDE]
IC50 [1]: > 133 µM | AUC at 12 h [14]: 1.6 µM·h | IC50 [3]: > 133 µM | IC50 [5]: 73.9 µM | concentration at 12 h [15]: 133 nM | IC50 [6]: > 133 µM | Ratio [16]: 0.002

COc1cc(NC(C)CCCN)c2ncccc2c1 (stereo not given) [PRIMAQUINE]
IC50 [1]: > 133 µM | concentration at 24 h [17]: 71 nM | Ratio [18]: 0.002 | IC50 [3]: > 133 µM | AUC at 24 h [19]: 1.71 µM·h | IC50 [6]: > 133 µM

CC(C)(C)NC(=O)[C@H]1CC[C@H]2[C@@H]3CC[C@H]4NC(=O)C=C[C@]4(C)[C@H]3CC[C@]12C [FINASTERIDE]
IC50 [1]: > 133 µM | AUC at 24 h [20]: 0.993 µM·h | IC50 [3]: > 133 µM | concentration at 24 h [21]: 41 nM | Ratio [22]: 0.00147 | concentration at 24 h [23]: 41 nM | IC50 [6]: 51 µM | Ratio [24]: 0.001 | AUC at 24 h [25]: 0.993 µM·h | Ratio [26]: 0.001 | Ratio [27]: 0.00147
